From US7049396B2, “Synthetic peptides that inhibit leukocyte superoxide anion production and/or attract leukocytes” (priority 1995, dated 2006) come the findings set out here.

Converted amounts (≈) assume the structure as drawn. Where two headings read alike, the source gives them in different places. Where a SMILES comes first, the peptide text is derived from it.

Data set [1] addresses T1, cell-free NADPH oxidase (human neutrophil cytosol and membranes) (Homo sapiens, UniProt P14598).
T1 construct: 10^6 cell equivalents of human neutrophil cytosol; from tissue; host or cells: human peripheral blood neutrophils (cytosol and deoxycholate-solubilized membranes)
T1 sequence (P14598 1-390): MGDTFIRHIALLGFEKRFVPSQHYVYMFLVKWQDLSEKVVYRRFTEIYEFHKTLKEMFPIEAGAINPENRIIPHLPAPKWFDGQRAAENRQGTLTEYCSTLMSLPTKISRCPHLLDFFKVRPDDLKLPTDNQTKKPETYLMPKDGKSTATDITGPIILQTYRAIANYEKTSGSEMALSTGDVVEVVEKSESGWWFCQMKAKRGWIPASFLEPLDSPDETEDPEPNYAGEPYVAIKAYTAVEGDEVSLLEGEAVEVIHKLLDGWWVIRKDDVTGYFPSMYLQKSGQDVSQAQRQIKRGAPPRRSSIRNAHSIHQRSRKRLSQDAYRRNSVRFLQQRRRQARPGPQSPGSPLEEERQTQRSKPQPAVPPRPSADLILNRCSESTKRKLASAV
The data set is described as follows: Cell-free O2- production assay. The class given is biochemical. As to the method: Reactions (100 μl) contained 10^6 cell equivalents of human neutrophil cytosol and 5×10^5 cell equivalents of deoxycholate-solubilized membranes prepared from human peripheral blood neutrophils. […] Control reactions contained 5 μg of superoxide dismutase. Superoxide anion generation was calculated based on superoxide dismutase-inhibitable changes in cytochrome c absorbance observed at 551 nm. The reactions were followed for 20 min. after addition of arachidonic acid, with absorbance readings taken at 1-min. intervals. […] Determinations were based on reactions performed in duplicate. • (ii) Binding assays. Neutrophils were disrupted by sonication, and unbroken cells, debris, and granules were removed by centrifuigation (13,000×g for 60 min.). Cytosol fractions were prepared by centrifugation (100,000 g for 45 min.) of the supernatants to remove residual membranes. Cytosolic proteins (15 μg in reducing buffer) were separated on a 7.5% SDS PAGE gel, transferred to PVDF membranes, and probed with biotinylated PR-39 (0.3 μM) for 2 hr. Binding between PR-39 and cytosolic proteins were visualized by a chemiluminescent streptavidin alkaline phosphatase system using an Epson scanner (Torrance, Calif.) and the NIH Image program. PR-39 was labeled with biotin hydrazide at the carboxy-terminus (Pierce Chemical Co., Rockford, Ill.) and purified by gel filtration chromatography.

Data set [2] deals with E. coli, ATCC 25922. The data set is described as follows: Gel-overlay antibacterial assay. In kind it is cell-based, Escherichia coli. As to conditions: 10 μg peptide per lane, AU-PAGE gel overlaid with E. coli, 18 hr.
Data set [3] relates to E. coli, ATTC 25922. Briefly: Lawn-spotting antibacterial assay (E. coli). The class given is cell-based, Escherichia coli. To be noted: 5 μl spotted, inactive segments up to 1 mg/ml.
For data set [4], the system named is S. typhimurium, KSU isolate 7. The data set is described as follows: Lawn-spotting antibacterial assay (S. typhimurium). The class given is cell-based, Salmonella typhimurium. As to conditions: 5 μl spotted, inactive segments up to 1 mg/ml.
Data set [5] has as its system porcine neutrophils. Briefly: Neutrophil chemotaxis, modified Boyden chamber. The class given is cell-based. As to conditions: peptide at 1 μM, 30 min. Here is the method: Influence of PR-39 on neutrophil chemotaxis. Chemotaxis of porcine neutrophils was measured by the procedure of Salak et al. (1993). Briefly, PR-14, PR15, PR-16, PR-26, or PR-39 (30 μl in Dulbecco's Modified Eagle's medium) were placed in the bottom chamber of a modified Boyden chamber (Neuro Probe, Cabin John, Md.) and porcine neutrophils (50 μl at 5×10^6 cells/ml) were placed in the top chamber. The chambers were incubated at 37° C. for 30 min. Cells that migrated through the porous membrane (pore size 5 μm) were stained using LeukoStat solution and enumerated. Five microscope fields were counted and the cells that migrated through the membrane were standardized to the medium control and referred to as the migration index.

In data set [6] the test system is whole-cell NADPH oxidase activity of porcine peripheral blood neutrophils. Briefly: Whole-cell O2- production, ferricytochrome c reduction. To be noted: incubated 150 min. before PMA stimulation. The class given is cell-based. As to the method:
Regulation of neutrophil O2^− production by PR-26 and PR-39. • (i) O2^− production assays. Whole-cell O2^− production by por-cine peripheral blood neutrophils was determined by the superoxide dismutase-inhibitable reduction of ferricytochrome c as previously described (Shi et al., 1994a). Cell-free O2^− production was measured as previously described (Leto et al., 1991) using 96-well plates and a Molecular Devices Thermomax microplate reader (Menlo Park, Calif.). Reactions (100 μl) contained 10^6 cell equivalents of human neutrophil cytosol and 5×10^5 cell equivalents of deoxycholate-solubilized membranes prepared from human peripheral blood neutrophils. Reaction mixtures contained 50 mM potassium phosphate (pH 7), 0.2 mM acetylated cytochrome c, 4 mM MgCl2, 1 mM EGTA, 10 μM FAD, 1 μM GTP-γS, and 200 μM NADPH. The reactions were initiated by addition of 40 μM arachidonic acid. Control reactions contained 5 μg of superoxide dismutase. Superoxide anion generation was calculated based on superoxide dismutase-inhibitable changes in cytochrome c absorbance observed at 551 nm. The reactions were followed for 20 min. after addition of arachidonic acid, with absorbance readings taken at 1-min. intervals. Maximum rates of superoxide generation were calculated from a linear least squares fit of 10 consecutive 1-min. data points. Determinations were based on reactions performed in duplicate. • (ii) Binding assays. Neutrophils were disrupted by sonication, and unbroken cells, debris, and granules were removed by centrifuigation (13,000×g for 60 min.). Cytosol fractions were prepared by centrifugation (100,000 g for 45 min.) of the supernatants to remove residual membranes. Cytosolic proteins (15 μg in reducing buffer) were separated on a 7.5% SDS PAGE gel, transferred to PVDF membranes, and probed with biotinylated PR-39 (0.3 μM) for 2 hr. Binding between PR-39 and cytosolic proteins were visualized by a chemiluminescent streptavidin alkaline phosphatase system using an Epson scanner (Torrance, Calif.) and the NIH Image program. PR-39 was labeled with biotin hydrazide at the carboxy-terminus (Pierce Chemical Co., Rockford, Ill.) and purified by gel filtration chromatography.

The test system of data set [7] is Salmonella choleraesuis. The class given is cell-based. As to the method: (§1) Plates were incubated at 37° C. for 18 hr. […] Viable bacteria were counted. Tests were repeated on three different days. […] The results were expressed as the mean ± standard deviation. […] S. choleraesuis, ATCC 6962 was used in this experiment. […] Slides were stained with LeukoStat solutions (Fisher, Pittsburgh, Pa.). […] At least 200 neutrophils were examined. […] Tests were repeated on three different days. Results were expressed as the mean±standard deviation.

The subject of data set [8] is Escherichia coli, 25922. The data set is described as follows: MIC/MBC microdilution broth method. In kind it is cell-based. Here is the method:
as §1
In general terms: Broth dilution looks for growth in wells or tubes with falling amounts of substance.

Data set [9] concerns Salmonella typhimurium. Briefly: MIC/MBC microdilution broth method. The class given is cell-based. As to conditions: murium. Here is the method: as §1
In data set [10] the test system is Staphylococcus aureus. Briefly: MIC/MBC microdilution broth method. In kind it is cell-based. As to the method:
as §1

Data set [11] concerns Streptococcus suis. The data set is described as follows: MIC/MBC microdilution broth method. The class given is cell-based. Here is the method:
as §1

Data set [12] concerns S. typhimurium. The data set is described as follows: Survival of mice after oral S. typhimurium challenge (first experiment). To be noted: 100 or 250 μg/mouse. The class given is in vivo, A/J mice. As to the method: Effect of PR-26 on survival of mice challenged with S. typhimurium. Three separate S. typhimurium challenge studies were conducted with mice. In the first experiment, 45 A/J mice (Jackson Labs, Bar Harbor, Me.) were orally challenged with S. typhimurium. Feed was withdrawn 4 hrs. prior to an oral inoculation. Twenty min. prior to the inoculation with S. typhimurium mice were given a 30 μl dose of a 10% sodium bicarbonate solution in PBS. S. typhimurium, strain KSU007, was started in brain heart infusion broth overnight and then grown for 6 hrs. in Luria Broth Base (GIBCO, Gaithersburg, Md.). After centrifugation, bacteria were suspended in a 1% gelatin solution (final concentration 1.24×10^10 S. typhimurium/ml), and then 25 μl were given orally. Immediately following oral inoculation with S. typhimurium, mice were given 0, 100, or 250 μg of PR-26 in PBS. A second dose of PR-26 or PBS was given 4 hrs. later.

Data set [13] concerns Escherichia coli, K88.
Procedure: Briefly, 50 μl of twofold serial dilutions (128 to 0.25 μM) of synthetic peptides were dispensed into wells of 96-well tissue culture plates. Bacteria (E. coli, ATCC 25922; E. coli, K88; S. typhimurium, fresh isolate from a dog; Salmonella choleraesuis ATCC 6962; Streptococcus suis, fresh isolate from porcine spleen; and Staphylococcus aureus) from sheep-blood or brain-heart-infusion agar plates were standardized to 0.5 McFarland in demineralized water using a radiometer/sensititre (Chelsea Instrument Ltd., England). The water/bacteria suspension (100 μl) was immediately transferred to 10 ml of cation-adjusted Muller-Hinton broth and 50 μl of the bacterial suspension then were added to each well of the microtiter plate. Plates were incubated for 20 hr. at 37° C. and MICs were determined. Ten microliters of bacterial suspensions in Muller-Hinton broth also were diluted to determine the actual bacterial concentration using standard colony forming unit (CFU) counting. After determination of the MICs, 10 μl of each bacteria-peptide suspension were plated on sheep-blood or brain-heart-infusion agar plates and incubated for 24 hr. at 37° C. to determine the MBCs. MBC was considered that peptide concentration that inhibited 99.9% of the original CFUs (NCCLS, 1990). • (iv) PAE.
The mark [14] stands for this setting: cell-free assay, read-out: IC50 of O2- generation.

Regarding `CC(C)C[C@H](NC(=O)[C@H](Cc1ccc(O)cc1)NC(=O)[C@@H]1CCCN1C(=O)[C@@H]1CCCN1C(=O)[C@H](CCCNC(=N)N)NC(=O)[C@@H]1CCCN1C(=O)[C@H](CCCNC(=N)N)NC(=O)[C@H](CCCNC(=N)N)NC(=O)[C@@H](N)CCCNC(=N)N)C(=O)N1CCC[C@H]1C(=O)N[C@@H](CCCNC(=N)N)C(=O)N1CCC[C@H]1C(=O)N[C@@H](CCCNC(=N)N)C(=O)N1CCC[C@H]1C(=O)N1CCC[C@H]1C(=O)N1CCC[C@H]1C(=O)N[C@@H](Cc1ccccc1)C(=O)N[C@@H](Cc1ccccc1)C(=O)N1CCC[C@H]1C(=O)O` [PR-19] (H-RRRPRPPYLPRPRPPPFFP-OH), the IC50 in data set [1] (setting [14]) is roughly 5 µM.

Take `CC[C@H](C)[C@H](NC(=O)[C@H](CCCNC(=N)N)NC(=O)[C@@H]1CCCN1C(=O)[C@@H]1CCCN1C(=O)[C@H](CC(C)C)NC(=O)[C@H](CCCNC(=N)N)NC(=O)[C@@H]1CCCN1C(=O)[C@@H]1CCCN1C(=O)[C@H](Cc1ccccc1)NC(=O)[C@H](Cc1ccccc1)NC(=O)[C@@H]1CCCN1C(=O)[C@@H]1CCCN1C(=O)[C@@H]1CCCN1C(=O)[C@H](CCCNC(=N)N)NC(=O)[C@@H]1CCCN1C(=O)[C@H](CCCNC(=N)N)NC(=O)[C@@H]1CCCN1C(=O)[C@H](CC(C)C)NC(=O)[C@H](Cc1ccc(O)cc1)NC(=O)[C@@H]1CCCN1C(=O)[C@@H]1CCCN1C(=O)[C@H](CCCNC(=N)N)NC(=O)[C@@H]1CCCN1)C(=O)O` [PR-23] (H-PRPPYLPRPRPPPFFPPRLPPRI-OH): the IC50 in data set [1] (setting [14]) was roughly 25 µM.

“PR-15: COOH-terminal segment 25 to 39 of PR-39; Sequence ID No. 6 (RIPPGFPPRFPPRFP)”: in data set [2], the “antibacterial activity (clear zones on overlaid gel)” value was “only PR-26 and PR-39 were found to have antibacterial activity”. The “antibacterial activity (clear zone on bacterial lawn)” value in data set [3] and in [4] was “no antibacterial activity” throughout. Also, in data set [5], the “neutrophil chemotaxis (migration index)” value is given as “chemotactic agents”. Further, in data set [6], the “O2- generation by intact neutrophils” value is “did not significantly reduce”. Besides, the “effect on O2- generation” value in data set [1] (cell-free assay) is listed as “did not affect”.

On to “PR-16: central segment 11 to 26 of PR-39; Sequence ID No. 5 (RPRPPPFFPPRLPPRI)”, for which the “antibacterial activity (clear zones on overlaid gel)” value in data set [2] is “only PR-26 and PR-39 were found to have antibacterial activity”. The “antibacterial activity (clear zone on bacterial lawn)” value in data set [3] and in data set [4] was “no antibacterial activity” throughout. Besides, in data set [5], the “neutrophil chemotaxis (migration index)” value is “chemotactic agents”. Moreover, in data set [6], the “O2- generation by intact neutrophils” value was “did not significantly reduce”. For the same compound, the “effect on O2- generation” value in data set [1] (cell-free assay) is reported as “did not affect”.

“PR-14: NH2-terminal segment 1 to 14 of PR-39; Sequence ID No. 7 (RRRPRPPYLPRPRP)”: the “antibacterial activity (clear zones on overlaid gel)” value in [2] is “only PR-26 and PR-39 were found to have antibacterial activity”. The “antibacterial activity (clear zone on bacterial lawn)” value in data set [3] and in data set [4] was “no antibacterial activity” each time. The “neutrophil chemotaxis (migration index)” value in [5] was “chemotactic agents”. In [6], the “O2- generation by intact neutrophils” value is “did not significantly reduce”. Besides, the “concentrations at which O2- generation was reduced” value in [1] (cell-free assay) is listed as “greater than 25 μM”.

Take `CC[C@H](C)[C@H](NC(=O)[C@H](CCCNC(=N)N)NC(=O)[C@@H]1CCCN1C(=O)[C@@H]1CCCN1C(=O)[C@H](CC(C)C)NC(=O)[C@H](CCCNC(=N)N)NC(=O)[C@@H]1CCCN1C(=O)[C@@H]1CCCN1C(=O)[C@H](Cc1ccccc1)NC(=O)[C@H](Cc1ccccc1)NC(=O)[C@@H]1CCCN1C(=O)[C@@H]1CCCN1C(=O)[C@@H]1CCCN1C(=O)[C@H](CCCNC(=N)N)NC(=O)[C@@H]1CCCN1C(=O)[C@H](CCCNC(=N)N)NC(=O)[C@@H]1CCCN1C(=O)[C@H](CC(C)C)NC(=O)[C@H](Cc1ccc(O)cc1)NC(=O)[C@@H]1CCCN1C(=O)[C@@H]1CCCN1C(=O)[C@H](CCCNC(=N)N)NC(=O)[C@@H]1CCCN1C(=O)[C@H](CCCNC(=N)N)NC(=O)[C@H](CCCNC(=N)N)NC(=O)[C@@H](N)CCCNC(=N)N)C(=O)O` [PR-26] (H-RRRPRPPYLPRPRPPPFFPPRLPPRI-OH): the MBC (commonly the lowest tested concentration that kills the bacteria rather than only halting them) in data set [7] is 2 µM (≈ 6.46 µg/mL); in [8] it was 8 µM (≈ 25.8 µg/mL); in data set [9] it was 2 µM (≈ 6.46 µg/mL); in data set [11], greater than 64 µM; in data set [13] it was 4 µM (≈ 12.9 µg/mL). Further, the MIC (commonly the smallest concentration in the dilution series that meets the test's criterion for growth inhibition) is 1 µM (≈ 3.23 µg/mL) in data set [7]; 2 µM (≈ 6.46 µg/mL) in data set [8]; 2 µM (≈ 6.46 µg/mL) in [9]; greater than 250 µM in [10]; 16 µM (≈ 51.7 µg/mL) in data set [11]; 1 µM (≈ 3.23 µg/mL) in data set [13]. For the same compound, the toxicity in mice entry in data set [12] is recorded as “no evidence of toxicity”. In data set [1], this compound had an IC50 of roughly 1 µM.
